Results as given in US6355799B1, “Substituted benzene compounds, process for their preparation, and herbicidal and defoliant compositions containing them” (ISK Americas Incorporated, priority 1997, dated 2002).

Tests used:
Format in all cases: in vivo
[1] = system: redroot pigweed (Amaranthus retroflexus, AMARE); assay: Pre-emerge test, greenhouse herbicide activity screening; conditions: pre-emerge, rated 14 days after application, 0 = no damage, 100 = complete death
Procedure, shortened: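 Sandy loam pots; pre-emerge: sown 1 d pre-spray, surface-watered after, then bottom-watered. Post-emerge: sown 8–21 d before, 2–3 leaf stage, + 0.25% v/v NIS, bottom-watered. Acetone, 187 l/ha track spray, 15–1000 g ai/ha. 0–100 injury score, day 14.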

[2] = system: field corn (Zea mays L., var. Dekalb 535, CORN); assay: Pre-emerge test, crop safety; conditions: pre-emerge, rated 14 days after application, 0 = no damage, 100 = complete death
Procedure, shortened: (§1)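 Rating: 0–100 visual injury, 14 DAA. Application: acetone, 187 l/ha, 15–1000 g ai/ha, flat-fan track sprayer with nozzle 40–45 cm above soil or canopy. Post-emerge runs used 0.25% v/v surfactant on 2–3 leaf plants.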

[3] = system: upland rice (Oryza sp., var. Tebonnet, RICE); assay: Pre-emerge test, crop safety; conditions: pre-emerge, rated 14 days after application, 0 = no damage, 100 = complete death
Procedure, shortened: as §1

[4] = system: velvetleaf (Abutilon theophrasti, ABUTH); assay: Pre-emerge test, greenhouse herbicide activity screening; conditions: pre-emerge, rated 14 days after application, 0 = no damage, 100 = complete death
Procedure, shortened: (§2)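 Fourteen days after spraying, crop and weed injury was graded visually from 0, no effect, to 100, every plant dead. Test substances were dissolved in acetone and applied at 15–1000 g ai/ha with a flat-fan nozzle. Application was either pre-emergence, one day after sowing, or post-emergence at the 2–3 leaf stage.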

[5] = system: lambsquarters (Chenopodium album, CHEAL); assay: as above; conditions: pre-emerge, rated 14 days after application, 0 = no damage, 100 = complete death
Procedure, shortened: as §2

[6] = system: johnsongrass (Sorghum halepense, SORHA); assay: as above; conditions: pre-emerge, rated 14 days after application, 0 = no damage, 100 = complete death
Procedure, shortened: as §2

[7] = system: green foxtail (Setaria viridis, SETVI); assay: as above; conditions: pre-emerge, rated 14 days after application, 0 = no damage, 100 = complete death
Procedure, shortened: as §2

[8] = system: large crabgrass (Digitaria sanguinalis, DIGSA); assay: as above; conditions: pre-emerge, rated 14 days after application, 0 = no damage, 100 = complete death
Procedure, shortened: as §2

[9] = system: barnyardgrass (Echinochloa crus-galli, ECHCG); assay: as above; conditions: pre-emerge, rated 14 days after application, 0 = no damage, 100 = complete death
Procedure, shortened: as §2

[10] = system: sicklepod (Cassia obtusifolia, CASOB); assay: as above; conditions: pre-emerge, rated 14 days after application, 0 = no damage, 100 = complete death
Procedure, shortened: as §2

[11] = system: ivyleaf morningglory (Ipomoea hederacea, IPOHE); assay: as above; conditions: pre-emerge, rated 14 days after application, 0 = no damage, 100 = complete death
Procedure, shortened: as §2

[12] = system: redroot pigweed (Amaranthus retroflexus, AMARE); assay: Post-emerge test, greenhouse herbicide activity screening; conditions: phytotoxicity rating 0-100 (0 no damage, 100 complete death), 14 days after application
Procedure, shortened: (§3)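 Compounds in acetone were track-sprayed at 15–1000 g ai/ha: pre-emergence onto soil sown the previous day, then top-watered to incorporate and later bottom-watered; post-emergence onto 2–3 leaf plants with 0.25% v/v surfactant, bottom-watered only. Ratings on a 0–100 phytotoxicity scale were taken at day 14.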

[13] = system: velvetleaf (Abutilon theophrasti, ABUTH); assay: as above; conditions: phytotoxicity rating 0-100 (0 no damage, 100 complete death), 14 days after application
Procedure, shortened: as §3

[14] = system: lambsquarters (Chenopodium album, CHEAL); assay: as above; conditions: phytotoxicity rating 0-100 (0 no damage, 100 complete death), 14 days after application
Procedure, shortened: as §3

[15] = system: johnsongrass (Sorghum halepense, SORHA); assay: as above; conditions: phytotoxicity rating 0-100 (0 no damage, 100 complete death), 14 days after application
Procedure, shortened: as §3

[16] = system: green foxtail (Setaria viridis, SETVI); assay: as above; conditions: phytotoxicity rating 0-100 (0 no damage, 100 complete death), 14 days after application
Procedure, shortened: as §3

[17] = system: large crabgrass (Digitaria sanguinalis, DIGSA); assay: as above; conditions: phytotoxicity rating 0-100 (0 no damage, 100 complete death), 14 days after application
Procedure, shortened: as §3

[18] = system: barnyardgrass (Echinochloa crus-galli, ECHCG); assay: as above; conditions: phytotoxicity rating 0-100 (0 no damage, 100 complete death), 14 days after application
Procedure, shortened: as §3

[19] = system: sicklepod (Cassia obtusifolia, CASOB); assay: as above; conditions: phytotoxicity rating 0-100 (0 no damage, 100 complete death), 14 days after application
Procedure, shortened: as §3

[20] = system: ivyleaf morningglory (Ipomoea hederacea, IPOHE); assay: as above; conditions: phytotoxicity rating 0-100 (0 no damage, 100 complete death), 14 days after application
Procedure, shortened: as §3

[21] = system: field corn (Zea mays L., var. Dekalb 535, CORN); assay: Post-emerge test, crop safety; conditions: phytotoxicity rating 0-100 (0 no damage, 100 complete death), 14 days after application
Procedure, shortened: as §2

[22] = system: upland rice (Oryza sp., var. Tebonnet, RICE); assay: Post-emerge test, crop safety; conditions: phytotoxicity rating 0-100 (0 no damage, 100 complete death), 14 days after application
Procedure, shortened: as §2

COc1c(Cl)cc(F)c(-n2c(=O)cc(C(F)(F)F)n(C)c2=O)c1N(C(=O)C=C(C)C)C(=O)C=C(C)C [2-8]
Pre-emerge Herbicidal Activity AMARE (phytotoxicity rating, scale 0-100) ([1]; 63 g ai/ha): 40 | Pre-emerge Herbicidal Activity AMARE (phytotoxicity rating, scale 0-100) ([1]; 250 g ai/ha): 100 | Pre-emerge crop damage CORN (phytotoxicity rating, scale 0-100) ([2]; 63 g ai/ha): 15 | Pre-emerge crop damage CORN (phytotoxicity rating, scale 0-100) ([2]; 250 g ai/ha): 15 | Pre-emerge crop damage RICE (phytotoxicity rating, scale 0-100) ([3]; 63 g ai/ha): 50 | Pre-emerge crop damage RICE (phytotoxicity rating, scale 0-100) ([3]; 250 g ai/ha): 50 | Pre-emerge Herbicidal Activity ABUTH (phytotoxicity rating, scale 0-100) ([4]; 63 g ai/ha): 0 | Pre-emerge Herbicidal Activity ABUTH (phytotoxicity rating, scale 0-100) ([4]; 250 g ai/ha): 100 | Pre-emerge Herbicidal Activity CHEAL (phytotoxicity rating, scale 0-100) ([5]; 63 g ai/ha): 60 | Pre-emerge Herbicidal Activity CHEAL (phytotoxicity rating, scale 0-100) ([5]; 250 g ai/ha): 100 | Pre-emerge Herbicidal Activity SORHA (phytotoxicity rating, scale 0-100) ([6]; 63 g ai/ha): 40 | Pre-emerge Herbicidal Activity SORHA (phytotoxicity rating, scale 0-100) ([6]; 250 g ai/ha): 40 | Pre-emerge Herbicidal Activity SETVI (phytotoxicity rating, scale 0-100) ([7]; 63 g ai/ha): 90 | Pre-emerge Herbicidal Activity SETVI (phytotoxicity rating, scale 0-100) ([7]; 250 g ai/ha): 90 | Pre-emerge Herbicidal Activity DIGSA (phytotoxicity rating, scale 0-100) ([8]; 63 g ai/ha): 80 | Pre-emerge Herbicidal Activity DIGSA (phytotoxicity rating, scale 0-100) ([8]; 250 g ai/ha): 80 | Pre-emerge Herbicidal Activity ECHCG (phytotoxicity rating, scale 0-100) ([9]; 63 g ai/ha): 0 | Pre-emerge Herbicidal Activity ECHCG (phytotoxicity rating, scale 0-100) ([9]; 250 g ai/ha): 0 | Pre-emerge Herbicidal Activity CASOB (phytotoxicity rating, scale 0-100) ([10]; 63 g ai/ha): 0 | Pre-emerge Herbicidal Activity CASOB (phytotoxicity rating, scale 0-100) ([10]; 250 g ai/ha): 0 | Pre-emerge Herbicidal Activity IPOHE (phytotoxicity rating, scale 0-100) ([11]; 63 g ai/ha): 0 | Pre-emerge Herbicidal Activity IPOHE (phytotoxicity rating, scale 0-100) ([11]; 250 g ai/ha): 100 | Post-emerge Herbicidal Activity AMARE ([12]; 63 g ai/ha): 0 | Post-emerge Herbicidal Activity AMARE ([12]; 250 g ai/ha): 20 | Post-emerge Herbicidal Activity ABUTH ([13]; 63 g ai/ha): 0 | Post-emerge Herbicidal Activity ABUTH ([13]; 250 g ai/ha): 40 | Post-emerge Herbicidal Activity CHEAL ([14]; 63 g ai/ha): 0 | Post-emerge Herbicidal Activity CHEAL ([14]; 250 g ai/ha): 60 | Post-emerge Herbicidal Activity SORHA ([15]; 63 g ai/ha): 0 | Post-emerge Herbicidal Activity SORHA ([15]; 250 g ai/ha): 0 | Post-emerge Herbicidal Activity SETVI ([16]; 63 g ai/ha): 0 | Post-emerge Herbicidal Activity SETVI ([16]; 250 g ai/ha): 0 | Post-emerge Herbicidal Activity DIGSA ([17]; 63 g ai/ha): 0 | Post-emerge Herbicidal Activity DIGSA ([17]; 250 g ai/ha): 0 | Post-emerge Herbicidal Activity ECHCG ([18]; 63 g ai/ha): 0 | Post-emerge Herbicidal Activity ECHCG ([18]; 250 g ai/ha): 0 | Post-emerge Herbicidal Activity CASOB ([19]; 63 g ai/ha): 0 | Post-emerge Herbicidal Activity CASOB ([19]; 250 g ai/ha): 0 | Post-emerge Herbicidal Activity IPOHE ([20]; 63 g ai/ha): 0 | Post-emerge Herbicidal Activity IPOHE ([20]; 250 g ai/ha): 50 | Post-emerge Herbicidal Activity CORN (crop damage) ([21]; 63 g ai/ha): 0 | Post-emerge Herbicidal Activity CORN (crop damage) ([21]; 250 g ai/ha): 0 | Post-emerge Herbicidal Activity RICE (crop damage) ([22]; 63 g ai/ha): 0 | Post-emerge Herbicidal Activity RICE (crop damage) ([22]; 250 g ai/ha): 0
